Source: patent publication US11419852B2, “Beta-lactam compounds or salts thereof for use in long-acting prevention or treatment of a glucose metabolism disorder” (GLYCOLYSIS BIOMED CO., LTD., priority 2019, dated 2022)
Marks after values point to notes of the source that are not given here.

Tests used:
Type in all cases: in vivo
[1] = Body weight of mice recorded weekly
Experimental: (§1) Four to five weeks old db/db mice (BKS.Cg-Dock7^m+/+Lepr^db/JNarl) and m/m mice (BKS.Cg-Dock7^m+/Dock7^m+) were obtained from National Laboratory Animal Center ([…], Taiwan). […] PMI Nutrition International, Brentwood, Mo.) and water ad libitum. […] The mouse body weight (bw) and the amounts of water and food intake were recorded weekly for the entire study period.

[2] = Food and water intake of mice; conditions: Ex 3: db/db mice, daily dosing 3 weeks at doses of Table 10
Experimental: as §1

db/db mice [3] = assay: Fasting plasma glucose (FPG) measurement; conditions: Ex 2 G3 db/db, Met oral 0.3 mg/g bw/day, dosing 6 weeks
Experimental: Four to five weeks old db/db mice (BKS.Cg-Dock7^m+/+Lepr^db/JNarl) and m/m mice (BKS.Cg-Dock7^m+/Dock7^m+) were obtained from National Laboratory Animal Center (Nangang, Taipei, Taiwan). These animals were maintained in a facility with a 12-h dark-light cycle at 24±2° C. and 65±5% humidity and were provided food (No. 5001; PMI Nutrition International, Brentwood, Mo.) and water ad libitum. For experiments, the average body weight of m/m mice was approximately 20 g, and that of db/db mice was approximately 30 g.
For each mouse, blood was sampled from the tail vein and measured for FPG levels using a blood glucose meter (OneTouch UltraEasy, Johnson & Johnson, USA) at a predestined time point.

db/db mice [4] = assay: Plasma biochemical parameters (AST, ALT, BUN, Cr, HbA1c); conditions: Ex 3: db/db mice, daily dosing 3 weeks at doses of Table 10; week 9
Experimental: Inflammatory markers such as serum aspartate aminotransferase (AST), alanine aminotransferase (ALT), blood urea nitrogen (BUN), creatinine (Cr), and hemoglobin Alc (HbAlc) were measured using a BMC-Hitachi 717 chemistry auto analyzer.

db/db mice [5] = assay: Histopathological assessment (H&E stain); conditions: Ex 2, metformin-treated vs ertapenem-treated mice
From the text: For histopathological assessment, all mice were sacrificed by 95% CO2 asphyxiation at the end of the study period. Their brain, liver, kidney, pancreas, and epididymal fat pads were removed, fixed in 10% phosphate-buffered formalin, and embedded in paraffin. Tissues embedded in paraffin were cut into […] sections that were then stained with hematoxylin-eosin (i.e., H&E stain).

For `CN(C)C(=N)N=C(N)N` [Met, metformin], which Body weight ([1]; Ex 2 G3 db/db, Met oral 0.3 mg/g bw/day, dosing 6 weeks, Baseline) is on record?
The Body weight was 31.17 ± 0.47^b.

What about the Body weight ([1]; Ex 2 G3 db/db, Met oral 0.3 mg/g bw/day, dosing 6 weeks, week 1) of the same compound?
The Body weight was 30.81 ± 0.48^b.

And the Body weight ([1]; Ex 2 G3 db/db, Met oral 0.3 mg/g bw/day, dosing 6 weeks, week 2)?
Its Body weight is 32.61 ± 0.46^bc.

And the Body weight ([1]; Ex 2 G3 db/db, Met oral 0.3 mg/g bw/day, dosing 6 weeks, week 3)?
The Body weight was 35.97 ± 0.57^cd.

What about the Body weight ([1]; Ex 2 G3 db/db, Met oral 0.3 mg/g bw/day, dosing 6 weeks, week 4) of the same compound?
The Body weight was 37.47 ± 0.79^c.

What about the Body weight ([1]; Ex 2 G3 db/db, Met oral 0.3 mg/g bw/day, dosing 6 weeks, week 5) of the same compound?
Its Body weight is 40.15 ± 0.93^c.

And the Body weight ([1]; Ex 2 G3 db/db, Met oral 0.3 mg/g bw/day, dosing 6 weeks, week 6)?
The Body weight was 41.82 ± 0.98^d.

And the Body weight ([1]; Ex 2 G3 db/db, Met oral 0.3 mg/g bw/day, dosing 6 weeks, week 7)?
The Body weight was 42.38 ± 1.25^d.

What about the Body weight ([1]; Ex 2 G3 db/db, Met oral 0.3 mg/g bw/day, dosing 6 weeks, week 8) of the same compound?
Its Body weight is 43.04 ± 1.54^d.

And the Body weight ([1]; Ex 2 G3 db/db, Met oral 0.3 mg/g bw/day, dosing 6 weeks, week 9)?
The Body weight was 43.68 ± 1.58^d.

What about the Body weight ([1]; Ex 2 G3 db/db, Met oral 0.3 mg/g bw/day, dosing 6 weeks, week 10) of the same compound?
Its Body weight is 43.40 ± 1.4^b.

And the Body weight ([1]; Ex 2 G3 db/db, Met oral 0.3 mg/g bw/day, dosing 6 weeks, week 11)?
The Body weight was 44.15 ± 1.37^b.

What about the Body weight ([1]; Ex 2 G3 db/db, Met oral 0.3 mg/g bw/day, dosing 6 weeks, week 12) of the same compound?
The Body weight was 45.24 ± 1.37^b.

And the Body weight ([1]; Ex 2 G3 db/db, Met oral 0.3 mg/g bw/day, dosing 6 weeks, week 13)?
The Body weight was 44.68 ± 1.6^b.

What about the Body weight ([1]; Ex 3: db/db mice, daily dosing 3 weeks at doses of Table 10, Baseline) of the same compound?
Its Body weight is 28.9 ± 1^b.

What about the Body weight ([1]; Ex 3: db/db mice, daily dosing 3 weeks at doses of Table 10, Final) of the same compound?
The Body weight was 37.0 ± 1^c.

What about the Body weight ([1]; Ex 3: db/db mice, daily dosing 3 weeks at doses of Table 10, Week 3) of the same compound?
Its Body weight is 35.9 ± 1^d.

And the Body weight ([1]; Ex 3: db/db mice, daily dosing 3 weeks at doses of Table 10, Week 6 (stopped for 3 weeks))?
The Body weight was 39.5 ± 1^c.

And the Body weight ([1]; Ex 3: db/db mice, daily dosing 3 weeks at doses of Table 10, Week 9 (stopped for 6 weeks))?
Its Body weight is 39.7 ± 1^c.

And the Diet intake [2]?
The Diet intake was 6.2 ± 1^c g/mice/day.

What about the Water intake [2] of the same compound?
Its Water intake is 12.1 ± 1^d mL/mice/day.

What about the “Average FPG level” value (db/db mice [3]; week 0) of the same compound?
Its value is 160 ± 21^b.

What about the “Average FPG level” value (db/db mice [3]; week 3) of the same compound?
The value was 136 ± 13^b.

And the “Average FPG level” value (db/db mice [3]; week 6)?
Its value is 222 ± 30^b.

What about the “Average FPG level” value (db/db mice [3]; week 9) of the same compound?
Its value is 310 ± 25^d.

What about the “Average FPG level” value (db/db mice [3]; week 12) of the same compound?
Its value is 267 ± 43^cd.

And the “Average FPG level” value (db/db mice [3]; week 16)?
Its value is 215 ± 27^b.

And the “Average FPG level” value (db/db mice [3]; week 18)?
Its value is 346 ± 50^b.

And the ALT (db/db mice [4])?
The ALT was 116 ± 12^d U/L.

And the AST (db/db mice [4])?
Its AST is 194 ± 17^e U/L.

And the BUN (db/db mice [4])?
The BUN was 37 ± 1^b mg/dL.

And the Creatinine (db/db mice [4])?
The Creatinine was 0.517 ± 0.01^e mg/dL.

What about the HbA1c (db/db mice [4]) of the same compound?
Its HbA1c is 6.7 ± 0.2^e %.

What about the “Kidney histological changes (tubular degeneration and necrosis, mineralization, hyaline cast)” value (db/db mice [5]) of the same compound?
The value was “more apparent”.
